The results in this text go back to patent publication US9573884B2 (priority 2010, dated 2017).

Holding throughout (type): cell-based
Test [1] has as its system Pseudomonas aeruginosa and Staphylococcus aureas.
The test system of test [2] is Pseudomonas aeruginosa.
In test [3] the test system is Staphylococcus aureas.

“And” between values parts separate entries of the source, which are not always exact repeats. Equal values may be shown once.

As to `CC/C=C/CCCCCCCC(=O)NCCN1CC[N+](C)=C1CCCCCCC/C=C/CC` [C12-13, C12 DETA Quat], the “Overall Rating” value in test [1] is on record as “good”. Also, the “% Kill” value is 27.1% and 13.7% in test [2]; 48.3% and 33.1% in test [3].
